In patent US12122761B2, “2-azaspiro[3.4]octane derivatives as M4 agonists” (NOVARTIS AG, priority 2019, dated 2024):

Experiments:
[1] = target: T1, human cloned CHRM4 receptor (M4_CHO cells) (Homo sapiens, UniProt P08173); test: CHRM4 Ca++ Flux Assay (agonist mode, FDSS 7000EX); type: cell-based; conditions: for M4 FDSS PA: Percent Activity; for EC50: geometric mean if tested more than once, read-out: M4 FDSS EC50
T1 construct: expressed in transfected cells; host or cells: CHO-K1
T1 sequence (P08173 1-479): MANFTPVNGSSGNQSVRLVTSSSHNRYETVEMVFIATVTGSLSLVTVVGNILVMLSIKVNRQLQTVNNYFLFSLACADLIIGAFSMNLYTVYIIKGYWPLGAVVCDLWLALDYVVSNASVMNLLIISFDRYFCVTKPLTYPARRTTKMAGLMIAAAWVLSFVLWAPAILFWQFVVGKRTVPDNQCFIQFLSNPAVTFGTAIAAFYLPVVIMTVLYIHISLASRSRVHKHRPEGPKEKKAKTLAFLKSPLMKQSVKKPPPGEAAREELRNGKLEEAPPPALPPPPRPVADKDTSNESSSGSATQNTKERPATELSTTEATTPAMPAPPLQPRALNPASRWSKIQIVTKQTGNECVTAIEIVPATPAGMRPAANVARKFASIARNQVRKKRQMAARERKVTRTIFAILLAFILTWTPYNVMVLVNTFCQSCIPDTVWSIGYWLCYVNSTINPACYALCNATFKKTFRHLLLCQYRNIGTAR
Procedure, shortened: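 Agonist-mode response was expressed as percent of the Carbachol EC100 and fitted with four-parameter nonlinear regression over an 11-point triplicate dose series. Intracellular Ca++ was tracked for 3 min by fluorescent dye in CHO-K1 cells stably expressing human CHRM4. Cells were preincubated 60 min with 20 μM ATP in buffer containing 2.5 mM probenecid.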

[2] = target: T2, Cloned human M1 receptor (CHRM1) stably expressed in HEK293 cells (Homo sapiens, UniProt P11229); test: CHRM1 Ca++ Flux Assay (agonist mode, FDSS 7000EX); type: cell-based; conditions: for M1 FDSS PA: Percent Activity; for EC50: geometric mean if tested more than once
T2 construct: expressed in transfected cells; host or cells: HEK293
T2 sequence (P11229 1-460): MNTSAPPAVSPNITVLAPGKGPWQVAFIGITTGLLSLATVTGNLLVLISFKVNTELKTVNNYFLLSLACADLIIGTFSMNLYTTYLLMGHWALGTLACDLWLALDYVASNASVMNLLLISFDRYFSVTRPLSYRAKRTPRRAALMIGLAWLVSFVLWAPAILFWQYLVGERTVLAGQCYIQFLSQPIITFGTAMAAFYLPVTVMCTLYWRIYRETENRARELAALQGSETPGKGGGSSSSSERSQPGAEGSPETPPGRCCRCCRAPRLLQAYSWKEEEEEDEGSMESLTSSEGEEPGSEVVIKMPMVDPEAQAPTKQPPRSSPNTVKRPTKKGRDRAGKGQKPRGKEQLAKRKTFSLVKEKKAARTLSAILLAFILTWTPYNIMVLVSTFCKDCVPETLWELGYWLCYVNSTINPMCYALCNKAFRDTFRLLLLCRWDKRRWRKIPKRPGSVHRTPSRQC
Procedure, shortened: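 Compounds tested as agonists at 11 concentrations in triplicate, with calcium traces captured over 3 minutes. Cells were HEK293 with stable human CHRM1 expression, plated overnight at 25K/well and loaded with calcium dye. Responses normalized to carbachol EC100 and fitted by four-parameter nonlinear regression.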

Structure (SMILES): O=C(N1CC2(CC[C@@H](N3CCC(c4cc(F)ccc4OC4CCOCC4)CC3)C2)C1)C1(F)CC1 (single isomer, unassigned) [Example 9D, (R)-(6-(4-(5-fluoro-2-((tetrahydro-2H-pyran-4-yl)oxy)phenyl)piperidin-1-yl)-2-azaspiro[3.4]octan-2-yl)(1-fluorocyclopropyl)methanone or (S)-(6-(4-(5-fluoro-2-((tetrahydro-2H-pyran-4-yl)oxy)phenyl)piperidin-1-yl)-2-azaspiro[3.4]octan-2-yl)(1-fluorocyclopropyl)methanone]
- M4 FDSS PA [1]: 43%
- EC50 [1]: 75 nM
- M1 FDSS PA [2]: 23%
- EC50 [2]: 1770 nM

Structure (SMILES): O=C(N1CC2(CC[C@@H](N3CCC(c4ccccc4OC4CCOCC4)CC3)C2)C1)C1(F)CC1 (single isomer, unassigned) [Example 9E, (R)-(1-fluorocyclopropyl)(6-(4-(2-((tetrahydro-2H-pyran-4-yl)oxy)phenyl)piperidin-1-yl)-2-azaspiro[3.4]octan-2-yl)methanone or (S)-(1-fluorocyclopropyl)(6-(4-(2-((tetrahydro-2H-pyran-4-yl)oxy)phenyl)piperidin-1-yl)-2-azaspiro[3.4]octan-2-yl)methanone]
- M4 FDSS PA [1]: 55%
- EC50 [1]: 1 nM
- M1 FDSS PA [2]: 34%
- EC50 [2]: 120 nM

Structure (SMILES): O=C(N1CC2(CC[C@@H](N3CCC(c4ccccc4OC4CCOCC4)CC3)C2)C1)C1(F)CC1 (single isomer, unassigned) [Example 9F, (R)-(1-fluorocyclopropyl)(6-(4-(2-((tetrahydro-2H-pyran-4-yl)oxy)phenyl)piperidin-1-yl)-2-azaspiro[3.4]octan-2-yl)methanone or (S)-(1-fluorocyclopropyl)(6-(4-(2-((tetrahydro-2H-pyran-4-yl)oxy)phenyl)piperidin-1-yl)-2-azaspiro[3.4]octan-2-yl)methanone]
- M4 FDSS PA [1]: 47%
- EC50 [1]: 156 nM
- M1 FDSS PA [2]: 0%
- EC50 [2]: > 25000 nM

Structure (SMILES): O=C(N1CC2(CC[C@@H](N3CCC(c4ccccc4C4(O)CCOCC4)CC3)C2)C1)C1(F)CC1 (single isomer, unassigned) [Example 9G, (R)-(1-fluorocyclopropyl)(6-(4-(2-(4-hydroxytetrahydro-2H-pyran-4-yl)phenyl)piperidin-1-yl)-2-azaspiro[3.4]octan-2-yl)methanone or (S)-(1-fluorocyclopropyl)(6-(4-(2-(4-hydroxytetrahydro-2H-pyran-4-yl)phenyl)piperidin-1-yl)-2-azaspiro[3.4]octan-2-yl)methanone]
- M4 FDSS PA [1]: 14%
- EC50 [1]: 76 nM
- M1 FDSS PA [2]: 16%
- EC50 [2]: 301 nM

Structure (SMILES): O=C(N1CC2(CC[C@@H](N3CCC(c4ccccc4C4(O)CCOCC4)CC3)C2)C1)C1(F)CC1 (single isomer, unassigned) [Example 9H, (R)-(1-fluorocyclopropyl)(6-(4-(2-(4-hydroxytetrahydro-2H-pyran-4-yl)phenyl)piperidin-1-yl)-2-azaspiro[3.4]octan-2-yl)methanone or (S)-(1-fluorocyclopropyl)(6-(4-(2-(4-hydroxytetrahydro-2H-pyran-4-yl)phenyl)piperidin-1-yl)-2-azaspiro[3.4]octan-2-yl)methanone]
- M4 FDSS PA [1]: 0%
- EC50 [1]: > 25000 nM
- M1 FDSS PA [2]: 0%
- EC50 [2]: > 25000 nM

Structure (SMILES): O=C(N1CC2(CC[C@@H](N3CCC(c4cc(F)ccc4C4(O)CCOCC4)CC3)C2)C1)C1(F)CC1 (single isomer, unassigned) [Example 9I, (R)-(6-(4-(5-fluoro-2-(4-hydroxytetrahydro-2H-pyran-4-yl)phenyl)piperidin-1-yl)-2-azaspiro[3.4]octan-2-yl)(1-fluorocyclopropyl)methanone or (S)-(6-(4-(5-fluoro-2-(4-hydroxytetrahydro-2H-pyran-4-yl)phenyl)piperidin-1-yl)-2-azaspiro[3.4]octan-2-yl)(1-fluorocyclopropyl)methanone]
- M4 FDSS PA [1]: 17%
- EC50 [1]: 15 nM
- M1 FDSS PA [2]: 23%
- EC50 [2]: 92 nM

Structure (SMILES): O=C(N1CC2(CC[C@@H](N3CCC(c4cc(F)ccc4C4(O)CCOCC4)CC3)C2)C1)C1(F)CC1 (single isomer, unassigned) [Example 9J, (R)-(6-(4-(5-fluoro-2-(4-hydroxytetrahydro-2H-pyran-4-yl)phenyl)piperidin-1-yl)-2-azaspiro[3.4]octan-2-yl)(1-fluorocyclopropyl)methanone or (S)-(6-(4-(5-fluoro-2-(4-hydroxytetrahydro-2H-pyran-4-yl)phenyl)piperidin-1-yl)-2-azaspiro[3.4]octan-2-yl)(1-fluorocyclopropyl)methanone]
- M4 FDSS PA [1]: 1%
- EC50 [1]: 241 nM
- M1 FDSS PA [2]: 3%
- EC50 [2]: 2690 nM

Structure (SMILES): O=C(N1CC2(CC[C@@H](N3CCC(c4cc(F)ccc4C4CCOCC4)CC3)C2)C1)C1(F)CC1 (single isomer, unassigned) [Example 9K, (R)-(6-(4-(5-fluoro-2-(tetrahydro-2H-pyran-4-yl)phenyl)piperidin-1-yl)-2-azaspiro[3.4]octan-2-yl)(1-fluorocyclopropyl)methanone or (S)-(6-(4-(5-fluoro-2-(tetrahydro-2H-pyran-4-yl)phenyl)piperidin-1-yl)-2-azaspiro[3.4]octan-2-yl)(1-fluorocyclopropyl)methanone]
- M4 FDSS PA [1]: 56%
- EC50 [1]: 1 nM
- M1 FDSS PA [2]: 58%
- EC50 [2]: 36 nM

Structure (SMILES): O=C(N1CC2(CC[C@@H](N3CCC(c4cc(F)ccc4C4CCOCC4)CC3)C2)C1)C1(F)CC1 (single isomer, unassigned) [Example 9L, (R)-(6-(4-(5-fluoro-2-(tetrahydro-2H-pyran-4-yl)phenyl)piperidin-1-yl)-2-azaspiro[3.4]octan-2-yl)(1-fluorocyclopropyl)methanone or (S)-(6-(4-(5-fluoro-2-(tetrahydro-2H-pyran-4-yl)phenyl)piperidin-1-yl)-2-azaspiro[3.4]octan-2-yl)(1-fluorocyclopropyl)methanone]
- M4 FDSS PA [1]: 49%
- EC50 [1]: 26 nM
- M1 FDSS PA [2]: 31%
- EC50 [2]: 569 nM

Structure (SMILES): Fc1cncc(N2CC3(CC[C@@H](N4CCC(c5cc(F)ccc5OC5CCOCC5)CC4)C3)C2)c1 (single isomer, unassigned) [Example 10A, (R)-6-(4-(5-fluoro-2-((tetrahydro-2H-pyran-4-yl)oxy)phenyl)piperidin-1-yl)-2-(5-fluoropyridin-3-yl)-2-azaspiro[3.4]octane or (S)-6-(4-(5-fluoro-2-((tetrahydro-2H-pyran-4-yl)oxy)phenyl)piperidin-1-yl)-2-(5-fluoropyridin-3-yl)-2-azaspiro[3.4]octane]
- M4 FDSS PA [1]: 60%
- EC50 [1]: 5 nM
- M1 FDSS PA [2]: 34%
- EC50 [2]: 1330 nM

Structure (SMILES): Fc1cncc(N2CC3(CC[C@@H](N4CCC(c5cc(F)ccc5OC5CCOCC5)CC4)C3)C2)c1 (single isomer, unassigned) [Example 10B, (R)-6-(4-(5-fluoro-2-((tetrahydro-2H-pyran-4-yl)oxy)phenyl)piperidin-1-yl)-2-(5-fluoropyridin-3-yl)-2-azaspiro[3.4]octane or (S)-6-(4-(5-fluoro-2-((tetrahydro-2H-pyran-4-yl)oxy)phenyl)piperidin-1-yl)-2-(5-fluoropyridin-3-yl)-2-azaspiro[3.4]octane]
- M4 FDSS PA [1]: 41%
- EC50 [1]: 45 nM
- EC50 [2]: > 25000 nM

Structure (SMILES): Fc1ccc(C2CCOCC2)c(C2CCN([C@@H]3CCC4(C3)CN(c3cncnc3)C4)CC2)c1 (single isomer, unassigned) [Example 10C, (R)-6-(4-(5-fluoro-2-(tetrahydro-2H-pyran-4-yl)phenyl)piperidin-1-yl)-2-(pyrimidin-5-yl)-2-azaspiro[3.4]octane or (S)-6-(4-(5-fluoro-2-(tetrahydro-2H-pyran-4-yl)phenyl)piperidin-1-yl)-2-(pyrimidin-5-yl)-2-azaspiro[3.4]octane]
- M4 FDSS PA [1]: 62%
- EC50 [1]: < 0.4 nM
- M1 FDSS PA [2]: 76%
- EC50 [2]: 80 nM
